Molecular target: Tyrosine-protein phosphatase non-receptor type 22 (Homo sapiens) (UniProt Q9Y2R2)
Test: inhibition of lymphoid tyrosine phosphatase LYP – biochemical, pCAP fluorogenic substrate, fluorescence, set 3, SAR follow-up (AID 449727)
Settings: recombinant LYP

Sequence of Tyrosine-protein phosphatase non-receptor type 22 (Homo sapiens) (Q9Y2R2 whole entry, looked up): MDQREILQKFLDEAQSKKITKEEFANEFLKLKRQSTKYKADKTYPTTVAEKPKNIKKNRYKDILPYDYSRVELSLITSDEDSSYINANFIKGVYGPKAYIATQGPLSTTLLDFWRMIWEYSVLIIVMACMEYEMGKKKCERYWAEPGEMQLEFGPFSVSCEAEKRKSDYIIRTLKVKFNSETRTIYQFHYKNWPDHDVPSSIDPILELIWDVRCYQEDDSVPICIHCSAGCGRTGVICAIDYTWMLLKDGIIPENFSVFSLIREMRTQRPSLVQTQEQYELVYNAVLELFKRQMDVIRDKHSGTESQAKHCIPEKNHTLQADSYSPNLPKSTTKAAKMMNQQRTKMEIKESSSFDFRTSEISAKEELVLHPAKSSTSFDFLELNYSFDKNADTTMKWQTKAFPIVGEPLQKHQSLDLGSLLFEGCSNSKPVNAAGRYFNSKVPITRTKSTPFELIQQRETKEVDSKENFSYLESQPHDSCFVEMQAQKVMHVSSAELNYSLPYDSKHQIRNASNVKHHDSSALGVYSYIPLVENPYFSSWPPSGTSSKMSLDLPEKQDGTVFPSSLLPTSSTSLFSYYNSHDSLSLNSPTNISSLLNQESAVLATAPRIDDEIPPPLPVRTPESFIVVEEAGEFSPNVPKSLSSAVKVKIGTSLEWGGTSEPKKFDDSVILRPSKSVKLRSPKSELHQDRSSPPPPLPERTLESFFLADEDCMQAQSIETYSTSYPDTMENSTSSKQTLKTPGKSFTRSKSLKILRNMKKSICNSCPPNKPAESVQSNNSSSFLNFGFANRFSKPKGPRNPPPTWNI

COc1ccc(/C=C2\SC(=S)N(CCC(=O)Nc3ccc(C(=O)O)cc3)C2=O)cc1OC
IC50: 2.94 µM

Cc1c(Cl)cccc1NS(=O)(=O)c1ccc2c(c1)C1C=CCC1C(c1ccc(C(=O)O)cc1)N2 (stereo unspecified)
IC50: 47 µM

N#C/C(=C\c1ccc(OCc2ccc(Cl)cc2)cc1)C(=O)Nc1cccc(C(=O)O)c1
IC50: 6.36 µM

O=C(O)CCCN1C(=O)/C(=C/c2ccc(-c3nc4ccccc4s3)o2)SC1=S
IC50: 3.96 µM

CCc1ccc(/C=C2\SC(=S)N(CCCC(=O)Nc3ccc(C(=O)O)cc3)C2=O)cc1
IC50: 76 µM

CCOC(=O)C1=C(C)N=c2s/c(=C/c3cc(Cl)c(OCC(=O)O)c(OC)c3)c(=O)n2C1c1ccccc1Cl (stereo unspecified)
IC50: 30.6 µM
